This experiment relates to Plasmodium berghei. As to the kind of experiment: Luciferase/luciferin-expressing antifolate-resistant parasites were used to infect a culture of HepG2 cells that were pre-incubated with compounds. Infected hepatocytes emit light due to the luciferase reaction. Assay results are presented as the percent inhibition of light emission compared to control. […]. Format: functional. As to conditions: sporozoite; for IC90: read-out: LUCIFERASE INFECTION ASSAY - IC90.

In general, IC50 refers to the concentration that inhibits the measured activity by half. What is called IC90 is the concentration needed for an effect of 90%.

As for `Oc1cccc(-c2cnc3cnc(-c4cc5ccccc5s4)cn23)c1`, the concentration for an effect of 90% (IC90) was determined as 8.34 µM. Besides, under “HEPG2TOX_HILL_SLOPE 18.8, HEPG2TOX_R_SQUARED 0.771, PBLUC_HILL_SLOPE 3.35, PBLUC_R_SQUARED 0.418, read-out: LUCIFERASE INFECTION ASSAY - IC50”, the IC50 was found to be 4.33 µM.
In the case of `CC1=C2CCCC2CC/C1=N\NC(N)=O` (stereo not drawn), the IC90 is greater than 15.9 µM. In addition, the IC50 (HEPG2TOX_HILL_SLOPE 20.4, HEPG2TOX_R_SQUARED 0.643, PBLUC_HILL_SLOPE 11.7, PBLUC_R_SQUARED 0.0908, read-out: LUCIFERASE INFECTION ASSAY - IC50) is 14.9 µM.
For the compound `C(=C(c1nc2ccccc2s1)c1nc2ccccc2s1)c1cccnc1`, the IC90 is 9.07 µM. Besides, the IC50 (HEPG2TOX_HILL_SLOPE 18.8, HEPG2TOX_R_SQUARED 0.503, PBLUC_HILL_SLOPE 12.3, 18.3, PBLUC_R_SQUARED 0.0559, 0.217, read-out: LUCIFERASE INFECTION ASSAY - IC50) was 7.82 µM.
`Cc1cnc(NC(=O)c2ccc3nccnc3c2)s1`: the IC90 is greater than 10 µM. Besides, the concentration for half-maximal inhibition (IC50) (HEPG2TOX_HILL_SLOPE 19.6, HEPG2TOX_R_SQUARED 0.459, read-out: LUCIFERASE INFECTION ASSAY - IC50) was greater than 10 µM.
As for `Cc1cc(C)nc(N/N=C/c2cn(-c3ccccc3)nc2-c2ccc3c(c2)OCCO3)n1`, the IC90 was 9.32 µM. Besides, where the note is “HEPG2TOX_HILL_SLOPE 17.9, HEPG2TOX_R_SQUARED 0.773, PBLUC_HILL_SLOPE 3.73, PBLUC_R_SQUARED 0.671, read-out: LUCIFERASE INFECTION ASSAY - IC50”, the IC50 stood at 5.18 µM.
Consider `Cc1nn(-c2ccc(Cl)cc2)c2sc(C(=O)NCC3(N(C)C)CCCCC3)cc12`, for which the IC90 turned out to be 5.31 µM. Also, the IC50 (HEPG2TOX_HILL_SLOPE 22.9, HEPG2TOX_R_SQUARED 0.594, PBLUC_HILL_SLOPE 11.3, PBLUC_R_SQUARED 0.837, read-out: LUCIFERASE INFECTION ASSAY - IC50) came to 4.37 µM.
For `Cc1nn(-c2ccccc2)c(Sc2nc3ccccc3s2)c1/C=N/N1CCN(c2ccccn2)CC1`, the 90% effect concentration (IC90) is 7.21 µM. For the same compound, where the note is “HEPG2TOX_HILL_SLOPE 19.8, HEPG2TOX_R_SQUARED 0.361, PBLUC_HILL_SLOPE 5.19, PBLUC_R_SQUARED 0.522, read-out: LUCIFERASE INFECTION ASSAY - IC50”, the IC50 was found to be 4.72 µM.
With `CC(C)C(Nc1ccc(C(F)(F)F)cc1Cl)C(=O)Nc1nc(-c2ccc(F)cc2)cs1` (stereo not drawn), the concentration for an effect of 90% (IC90) came out at 5.28 µM. The IC50 (HEPG2TOX_HILL_SLOPE 19.1, HEPG2TOX_R_SQUARED 0.637, PBLUC_HILL_SLOPE 12.2, PBLUC_R_SQUARED 0.325, read-out: LUCIFERASE INFECTION ASSAY - IC50) worked out at 4.41 µM.
For the compound `COc1ccc(Cc2nc(Oc3ccc(C(C)=O)cc3OC)c3c4c(sc3n2)CCC4)cc1OC`, the IC90 is greater than 10 µM. Besides, the IC50 (HEPG2TOX_HILL_SLOPE 23.6, HEPG2TOX_R_SQUARED 0.901, PBLUC_HILL_SLOPE 2.45, PBLUC_R_SQUARED 0.768, read-out: LUCIFERASE INFECTION ASSAY - IC50) is 4.61 µM.
As to `CCC(CO)Nc1ccc2ncc(Br)n2n1` (stereo not drawn), the IC90 is greater than 11.6 µM. The IC50 (HEPG2TOX_HILL_SLOPE 18.2, HEPG2TOX_R_SQUARED 0.907, PBLUC_HILL_SLOPE 0.763, PBLUC_R_SQUARED 0.712, read-out: LUCIFERASE INFECTION ASSAY - IC50) stood at 4.83 µM.
`FC(F)(F)c1cccc(-c2cc3c(Nc4ccc5c(c4)OCCO5)nccc3[nH]2)c1`: the IC90 was determined as 5.7 µM. For the setting “HEPG2TOX_HILL_SLOPE 20.2, HEPG2TOX_R_SQUARED 0.64, PBLUC_HILL_SLOPE 4.68, PBLUC_R_SQUARED 0.558, read-out: LUCIFERASE INFECTION ASSAY - IC50”, the IC50 was determined as 3.56 µM.
In the case of `CNC(=O)C1CN(C(=O)c2oc3ccc(OC)cc3c2C)c2ccccc2O1` (stereo not drawn), the IC90 is greater than 10 µM. In addition, the IC50 (HEPG2TOX_HILL_SLOPE 21.4, HEPG2TOX_R_SQUARED 0.941, read-out: LUCIFERASE INFECTION ASSAY - IC50) was greater than 10 µM.
Turning to `Cc1nn(C(=O)Nc2cccc(C(F)(F)F)c2)c(C)c1Sc1ccc(C(F)(F)F)cn1`, the IC90 was greater than 7.17 µM. Besides, the IC50 (HEPG2TOX_HILL_SLOPE 21.1, HEPG2TOX_R_SQUARED 0.715, PBLUC_HILL_SLOPE 11, PBLUC_R_SQUARED 0.14, read-out: LUCIFERASE INFECTION ASSAY - IC50) was 6.09 µM.
Turning to `CCCCCCNC(=S)c1c(-c2ccc(F)cc2)c2c3n(c(COc4cc(C)ccc4C(C)C)nn13)CCCC2`, the IC90 was found to be 8.92 µM. Also, the concentration for half-maximal inhibition (IC50) (HEPG2TOX_HILL_SLOPE 19.8, 4.67, HEPG2TOX_R_SQUARED 0.943, 0.975, PBLUC_HILL_SLOPE 3.99, PBLUC_R_SQUARED 0.689, read-out: LUCIFERASE INFECTION ASSAY - IC50) worked out at 5.14 µM.
As to `Cc1nc(N(C)Cc2c(C)nn(C3CCS(=O)(=O)C3)c2C)c2c(-c3ccccc3)csc2n1` (stereo not drawn), the IC90 was greater than 10 µM. The IC50 (HEPG2TOX_HILL_SLOPE 23.3, HEPG2TOX_R_SQUARED 0.0131, PBLUC_HILL_SLOPE 4.31, PBLUC_R_SQUARED 0.318, read-out: LUCIFERASE INFECTION ASSAY - IC50) stood at 6.76 µM.
With `CCOC(=O)c1sc(NC(=O)Nc2ccc(Cl)c(Cl)c2)cc1C`, the IC90 was determined as 2.36 µM. Moreover, under “HEPG2TOX_HILL_SLOPE 22.1, HEPG2TOX_R_SQUARED 0.877, PBLUC_HILL_SLOPE 3.44, PBLUC_R_SQUARED 0.676, read-out: LUCIFERASE INFECTION ASSAY - IC50”, the IC50 came to 1.25 µM.
On to `Fc1cccc(NC(=S)NC2CCCCCCCCCCC2)c1`, for which the IC90 was 4.49 µM. The half-maximal inhibitory concentration (IC50) (HEPG2TOX_HILL_SLOPE 19.2, HEPG2TOX_R_SQUARED 0.924, PBLUC_HILL_SLOPE 9.11, PBLUC_R_SQUARED 0.436, read-out: LUCIFERASE INFECTION ASSAY - IC50) is 3.53 µM.
With `CCOC(=O)/C(=C\c1cccc(F)c1)C1=Nn2c(nnc2-c2ccc(OC)cc2)SC1`, the IC90 worked out at 6.43 µM. Besides, the IC50 (HEPG2TOX_HILL_SLOPE 19.5, HEPG2TOX_R_SQUARED 0.849, PBLUC_HILL_SLOPE 122, PBLUC_R_SQUARED 0.536, read-out: LUCIFERASE INFECTION ASSAY - IC50) is 6.31 µM.
Consider `Clc1ccc(-c2cc(-c3csc(Nc4ccccc4Cl)n3)on2)c(Cl)c1`, for which the IC90 is greater than 7.81 µM. The IC50 (HEPG2TOX_HILL_SLOPE 18.2, HEPG2TOX_R_SQUARED 0.802, PBLUC_HILL_SLOPE 3.06, PBLUC_R_SQUARED 0.131, read-out: LUCIFERASE INFECTION ASSAY - IC50) was 7.18 µM.
On to `COc1cccc(C(=O)CC2C(=O)Nc3ccccc32)c1` (stereo not drawn), for which the IC90 is 11.4 µM. The IC50 (HEPG2TOX_HILL_SLOPE 18.2, HEPG2TOX_R_SQUARED 0.892, PBLUC_HILL_SLOPE 11.5, PBLUC_R_SQUARED 0.65, read-out: LUCIFERASE INFECTION ASSAY - IC50) was 9.38 µM.
For the compound `CCc1cccc(NS(=O)(=O)c2ccc(-n3ncc(Cl)c(Cl)c3=O)cc2)c1`, the IC90 came out at 9.42 µM. Under “HEPG2TOX_HILL_SLOPE 22.4, HEPG2TOX_R_SQUARED 0.361, PBLUC_HILL_SLOPE 19.8, PBLUC_R_SQUARED 0.355, read-out: LUCIFERASE INFECTION ASSAY - IC50”, the half-maximal inhibitory concentration (IC50) amounted to 8.43 µM.
In the case of `Cc1cc(C(=O)Cn2c(CO)nc3ccccc32)c(C)n1Cc1ccco1`, the IC90 was greater than 10 µM. Also, the IC50 (HEPG2TOX_HILL_SLOPE 21, HEPG2TOX_R_SQUARED 0.739, PBLUC_HILL_SLOPE 1.98, PBLUC_R_SQUARED 0.61, read-out: LUCIFERASE INFECTION ASSAY - IC50) was found to be 3.71 µM.
With `CCN1C(=O)N(CCc2ccccc2)C2(CCN(Cc3cccc(OC)c3)CC2)C1=O`, the IC90 was greater than 7.83 µM. Where the note is “HEPG2TOX_HILL_SLOPE 18.8, HEPG2TOX_R_SQUARED 0.873, read-out: LUCIFERASE INFECTION ASSAY - IC50”, the IC50 was greater than 7.83 µM.
As for `COc1ccccc1C(=O)Nc1cc(-c2cn3cccnc3n2)ccc1C`, the IC90 is greater than 10 µM. For the same compound, for the setting “HEPG2TOX_HILL_SLOPE 18.3, HEPG2TOX_R_SQUARED 0.752, PBLUC_HILL_SLOPE 13.2, PBLUC_R_SQUARED 0.331, read-out: LUCIFERASE INFECTION ASSAY - IC50”, the IC50 was found to be 9.08 µM.
As to `O=C(Cn1ncc(Cl)c(Cl)c1=O)NCC(=O)Nc1ccc(F)c(F)c1F`, the IC90 is 6.18 µM. Also, the IC50 (HEPG2TOX_HILL_SLOPE 18.2, HEPG2TOX_R_SQUARED 0.93, PBLUC_HILL_SLOPE 2.22, PBLUC_R_SQUARED 0.782, read-out: LUCIFERASE INFECTION ASSAY - IC50) amounted to 2.3 µM.
Turning to `CCN(CC)S(=O)(=O)c1ccc(Cl)c(NC(=O)COC(=O)c2c3c(nc4ccccc24)CCC(C)C3)c1` (stereo not drawn), the IC90 amounted to 4.21 µM. The IC50 (HEPG2TOX_HILL_SLOPE 20.1, HEPG2TOX_R_SQUARED 0.334, PBLUC_HILL_SLOPE 11.1, PBLUC_R_SQUARED 0.597, read-out: LUCIFERASE INFECTION ASSAY - IC50) amounted to 3.46 µM.
`O=C1C=CC(=O)N1c1ccc(C2CCCCC2)cc1`: the concentration for an effect of 90% (IC90) is 11.3 µM. In addition, the half-maximal inhibitory concentration (IC50) (HEPG2TOX_HILL_SLOPE 18, HEPG2TOX_R_SQUARED 0.917, PBLUC_HILL_SLOPE 2, PBLUC_R_SQUARED 0.694, read-out: LUCIFERASE INFECTION ASSAY - IC50) was found to be 3.78 µM.
Regarding `Cn1c(-c2cccc(F)c2)nc2cnc(-c3cccc(Cl)c3)cc21`, the IC90 was greater than 10 µM. For the same compound, the IC50 (HEPG2TOX_HILL_SLOPE 19.5, HEPG2TOX_R_SQUARED 0.312, read-out: LUCIFERASE INFECTION ASSAY - IC50) is greater than 10 µM.
With `Nc1cccc(-c2ccnc3n[nH]c(-c4cccc(Cl)c4)c23)c1`, the IC90 was 7.12 µM. Further, where the note is “HEPG2TOX_HILL_SLOPE 22.1, HEPG2TOX_R_SQUARED 0.878, PBLUC_HILL_SLOPE 1.59, PBLUC_R_SQUARED 0.529, read-out: LUCIFERASE INFECTION ASSAY - IC50”, the IC50 came out at 1.79 µM.

These data come from ChEMBL document CHEMBL4483862, “Open-source discovery of chemical leads for next-generation chemoprotective antimalarials” (2018).
